This note sets out measurements from patent US20080200404A1, “Novel Antimalarial 9A-Carbamoyl-Aminoalkyl and 9A-Thiocarbamoyl-Aminoalkyl Azalides” (priority 2005, published 2008).

Converted amounts (≈) assume the structure as drawn. Where two headings read alike, the source gives them in different places.

Common to all, as to format: cell-based
The test system of assay [1] is Plasmodium falciparum TM91C235. Briefly: In vitro antimalarial [3H]-hypoxanthine incorporation assay, TM91C235. As to conditions: P. falciparum TM91C235 (multiple drug resistant isolate), 72 hours exposure; for IC50: Plasmodium falciparum. An outline of the steps:
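Growth was read by [3H]-hypoxanthine incorporation after 72 h total incubation, as CPM normalized to the mean of untreated infected controls. Erythrocytic-stage TM91C235 (0.4% parasitemia, 1% hematocrit, ALBUMAX medium without folate or PABA, 5% O2/5% CO2, 37° C) was first exposed 48 h to compound at three levels, 25–25,000 ng/ml, in duplicate.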

Assay [2] concerns Plasmodium falciparum clone CDC/Sierra Leone I (D-6). In words: In vitro antimalarial [3H]-hypoxanthine incorporation serial dilution assay, D6. As to conditions: P. falciparum D6, 72 hours exposure; for IC50: Plasmodium falciparum, D6, 72 h. An outline of the steps:
(§1)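 IC50 came from logistic fitting of eleven two-fold compound dilutions, read as [3H]-hypoxanthine uptake into parasite DNA relative to untreated infected wells after 72 h. Parasites were grown in A+ human erythrocytes (6%) in RPMI-1640 with plasma or ALBUMAX at 37° C, 5% CO2, 5% O2.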

Assay [3] concerns Plasmodium falciparum clone CDC/Indochina III (W-2). Briefly: In vitro antimalarial [3H]-hypoxanthine incorporation serial dilution assay, W2. As to conditions: P. falciparum W2, 72 hours exposure; for IC50: Plasmodium falciparum. An outline of the steps: as §1
Where [4] appears, read: compared with azithromycin, read-out: IC50 D6 (class symbol).

Consider `CC[C@H]1OC(=O)[C@H](C)[C@@H](O[C@H]2C[C@@](C)(OC)[C@@H](O)[C@H](C)O2)[C@H](C)[C@@H](O[C@@H]2O[C@H](C)C[C@H](N(C)C)[C@H]2O)[C@](C)(O)C[C@@H](C)CN(CCCNC(=S)Nc2ccc([N+](=O)[O-])cc2)[C@H](C)[C@@H](O)[C@]1(C)O` [Example 105], for which the IC50 was determined as 0.0237 µg/mL (≈ 0.0244 µM) in assay [1], 0.0184 µg/mL (≈ 0.0189 µM) in assay [2] (read-out: IC50 D6) and 0.0201 µg/mL (≈ 0.0207 µM) in assay [3].
As to `CC[C@H]1OC(=O)[C@H](C)[C@@H](O[C@H]2C[C@@](C)(OC)[C@@H](O)[C@H](C)O2)[C@H](C)[C@@H](O[C@@H]2O[C@H](C)C[C@H](N(C)C)[C@H]2O)[C@](C)(O)C[C@@H](C)CN(CCCNC(=O)NCc2ccc(OC)cc2)[C@H](C)[C@@H](O)[C@]1(C)O` [Example 67], the IC50 in assay [1] is 0.462 µg/mL (≈ 0.484 µM); in assay [2] (setting [4]) it was above 0.797 µg/mL; in assay [3], 0.195 µg/mL (≈ 0.204 µM).
On the same counts, the results for `CC[C@H]1OC(=O)[C@H](C)[C@@H](O[C@H]2C[C@@](C)(OC)[C@@H](O)[C@H](C)O2)[C@H](C)[C@@H](O[C@@H]2O[C@H](C)C[C@H](N(C)C)[C@H]2O)[C@](C)(O)C[C@@H](C)CN(CCCNC(=O)Nc2ccc(C(C)=O)cc2)[C@H](C)[C@@H](O)[C@]1(C)O.O=CO` [Example 65] are 0.398 µg/mL, above 0.797 µg/mL and 0.708 µg/mL.
Consider `CC[C@H]1OC(=O)[C@H](C)[C@@H](O[C@H]2C[C@@](C)(OC)[C@@H](O)[C@H](C)O2)[C@H](C)[C@@H](O[C@@H]2O[C@H](C)C[C@H](N(C)C)[C@H]2O)[C@](C)(O)C[C@@H](C)CN(CCCNC(=O)NC2CCCC2)[C@H](C)[C@@H](O)[C@]1(C)O` [Example 56], for which the IC50 in assay [1] was 0.556 µg/mL (≈ 0.616 µM); in assay [2] (setting [4]) it was above 0.797 µg/mL; in assay [3], 0.251 µg/mL (≈ 0.277 µM).
Consider `CC[C@H]1OC(=O)[C@H](C)[C@@H](O[C@H]2C[C@@](C)(OC)[C@@H](O)[C@H](C)O2)[C@H](C)[C@@H](O[C@@H]2O[C@H](C)C[C@H](N(C)C)[C@H]2O)[C@](C)(O)C[C@@H](C)CN(CCCNC(=O)Nc2cc(F)cc3c2OCOC3)[C@H](C)[C@@H](O)[C@]1(C)O.O=CO` [Example 82], for which the IC50 in assay [1] was found to be 0.227 µg/mL; in assay [2] (read-out: IC50 D6), 0.293 µg/mL; in assay [3], 0.316 µg/mL.
The corresponding values for `CC[C@H]1OC(=O)[C@H](C)[C@@H](O[C@H]2C[C@@](C)(OC)[C@@H](O)[C@H](C)O2)[C@H](C)[C@@H](O[C@@H]2O[C@H](C)C[C@H](N(C)C)[C@H]2O)[C@](C)(O)C[C@@H](C)CN(CCCNC(=S)Nc2ccc(OC(F)F)cc2)[C@H](C)[C@@H](O)[C@]1(C)O` [Example 106] are 0.12 µg/mL (≈ 0.121 µM), 0.215 µg/mL (≈ 0.216 µM) and 0.0626 µg/mL (≈ 0.063 µM).
On to `CCNC(=O)NCCN1C[C@H](C)C[C@@](C)(O)[C@H](O[C@@H]2O[C@H](C)C[C@H](N(C)C)[C@H]2O)[C@@H](C)[C@H](O[C@H]2C[C@@](C)(OC)[C@@H](O)[C@H](C)O2)[C@@H](C)C(=O)O[C@H](CC)[C@@](C)(O)[C@H](O)[C@H]1C` [Example 158, 9-Deoxo-9-dihydro-9a-[N′-(ethyl)carbamoyl-β-amino-ethyl]-9a-aza-9a-homoerythromycin A], for which the IC50 amounted to 0.103 µg/mL (≈ 0.121 µM) in assay [1], 0.167 µg/mL (≈ 0.197 µM) in assay [2] (read-out: IC50 D6) and 0.405 µg/mL (≈ 0.476 µM) in assay [3].
Turning to `CC[C@H]1OC(=O)[C@H](C)[C@@H](O[C@H]2C[C@@](C)(OC)[C@@H](O)[C@H](C)O2)[C@H](C)[C@@H](O[C@@H]2O[C@H](C)C[C@H](N(C)C)[C@H]2O)[C@](C)(O)C[C@@H](C)CN(CCCNC(=O)Nc2ccc(C(C)C)cc2)[C@H](C)[C@@H](O)[C@]1(C)O` [Example 66], the IC50 in assay [1] stood at 0.0746 µg/mL (≈ 0.0783 µM); in assay [2] (read-out: IC50 D6) it was 0.214 µg/mL (≈ 0.225 µM); in assay [3], 0.0676 µg/mL (≈ 0.0709 µM).
`CC[C@H]1OC(=O)[C@H](C)[C@@H](O[C@H]2C[C@@](C)(OC)[C@@H](O)[C@H](C)O2)[C@H](C)[C@@H](O[C@@H]2O[C@H](C)C[C@H](N(C)C)[C@H]2O)[C@](C)(O)C[C@@H](C)CN(CCCNC(=O)NC2CCCCC2)[C@H](C)[C@@H](O)[C@]1(C)O` [Example 58]: the IC50 was 0.377 µg/mL (≈ 0.411 µM) in assay [1], above 0.797 µg/mL in assay [2] (setting [4]) and 0.169 µg/mL (≈ 0.185 µM) in assay [3].
Take `CC[C@H]1OC(=O)[C@H](C)[C@@H](O[C@H]2C[C@@](C)(OC)[C@@H](O)[C@H](C)O2)[C@H](C)[C@@H](O[C@@H]2O[C@H](C)C[C@H](N(C)C)[C@H]2O)[C@](C)(O)C[C@@H](C)CN(CCCNC(=S)Nc2sc3c(c2C(=O)OC)CCCC3)[C@H](C)[C@@H](O)[C@]1(C)O` [Example 148]: the values for the IC50 in assay [1], in assay [2] (read-out: IC50 D6) and in assay [3] were 0.426 µg/mL (≈ 0.407 µM), 0.862 µg/mL (≈ 0.825 µM) and 0.24 µg/mL (≈ 0.229 µM), respectively.
On the same counts, the results for `CC[C@H]1OC(=O)[C@H](C)[C@@H](O[C@H]2C[C@@](C)(OC)[C@@H](O)[C@H](C)O2)[C@H](C)[C@@H](O[C@@H]2O[C@H](C)C[C@H](N(C)C)[C@H]2O)[C@](C)(O)C[C@@H](C)CN(CCCNC(=S)Nc2cccc(F)c2)[C@H](C)[C@@H](O)[C@]1(C)O.O=CO` [Example 131] are 0.115 µg/mL, 0.507 µg/mL and 0.198 µg/mL.
On the same counts, the results for `CC[C@H]1OC(=O)[C@H](C)[C@@H](O[C@H]2C[C@@](C)(OC)[C@@H](O)[C@H](C)O2)[C@H](C)[C@@H](O[C@@H]2O[C@H](C)C[C@H](N(C)C)[C@H]2O)[C@](C)(O)C[C@@H](C)CN(CCCNC(=S)Nc2ccc(-n3cccn3)cc2)[C@H](C)[C@@H](O)[C@]1(C)O.O=CO` [Example 140] are 0.105 µg/mL, 0.166 µg/mL and 0.114 µg/mL.
As for `CC[C@H]1OC(=O)[C@H](C)[C@@H](O[C@H]2C[C@@](C)(OC)[C@@H](O)[C@H](C)O2)[C@H](C)[C@@H](O[C@@H]2O[C@H](C)C[C@H](N(C)C)[C@H]2O)[C@](C)(O)C[C@@H](C)CN(CCCNC(=O)Nc2ccc(C#N)cc2)[C@H](C)[C@@H](O)[C@]1(C)O` [Example 59], the IC50 in assay [1] is 0.193 µg/mL (≈ 0.206 µM); in assay [2] (read-out: IC50 D6) it was 0.362 µg/mL (≈ 0.386 µM); in assay [3] it was 0.092 µg/mL (≈ 0.0983 µM).
On the same counts, the results for `CC[C@H]1OC(=O)[C@H](C)[C@@H](O[C@H]2C[C@@](C)(OC)[C@@H](O)[C@H](C)O2)[C@H](C)[C@@H](O[C@@H]2O[C@H](C)C[C@H](N(C)C)[C@H]2O)[C@](C)(O)C[C@@H](C)CN(CCCNC(=S)Nc2ccc(C3CC4CCC3C4)cc2)[C@H](C)[C@@H](O)[C@]1(C)O.O=CO` (stereo partly drawn) [Example 110] are 0.111 µg/mL, 0.247 µg/mL and 0.0461 µg/mL.
With `CCC1OC(=O)C(C)C(OC2CC(C)(OC)C(O)C(C)O2)C(C)C(OC2OC(C)CC(N(C)C)C2O)C(C)(O)CC(C)CN(CCNC(=O)Nc2ccc3ccccc3c2)C(C)C(O)C1(C)O` (stereo not drawn) [Example 12, 9-Deoxo-9-dihydro-9a-[N′-(2-naphtyl)carbamoyl-β-aminoethyl]-9a-aza-9a-homoerythromycin A], in assay [1], the “IC50 TM91C235” value came to 0.0289 µg/mL (≈ 0.0305 µM). Also, in assay [2], the “IC50 D6” value worked out at 0.0713 µg/mL (≈ 0.0753 µM). In addition, the “IC50 W2” value in assay [3] was 0.0432 µg/mL (≈ 0.0456 µM).
Take `CC[C@H]1OC(=O)[C@H](C)[C@@H](O[C@H]2C[C@@](C)(OC)[C@@H](O)[C@H](C)O2)[C@H](C)[C@@H](O[C@@H]2O[C@H](C)C[C@H](N(C)C)[C@H]2O)[C@](C)(O)C[C@@H](C)CN(CCCNC(=O)Nc2ccc(CC#N)cc2)[C@H](C)[C@@H](O)[C@]1(C)O` [Example 63]: the IC50 is 0.542 µg/mL (≈ 0.571 µM) in assay [1], above 0.797 µg/mL in assay [2] (setting [4]) and 0.141 µg/mL (≈ 0.149 µM) in assay [3].
Regarding `CC[C@H]1OC(=O)[C@H](C)[C@@H](O[C@H]2C[C@@](C)(OC)[C@@H](O)[C@H](C)O2)[C@H](C)[C@@H](O[C@@H]2O[C@H](C)C[C@H](N(C)C)[C@H]2O)[C@](C)(O)C[C@@H](C)CN(CCCNC(=O)Nc2ccc3c(c2)OCO3)[C@H](C)[C@@H](O)[C@]1(C)O` [Example 68], the IC50 turned out to be 0.254 µg/mL (≈ 0.265 µM) in assay [1], 0.798 µg/mL (≈ 0.835 µM) in assay [2] (read-out: IC50 D6) and 0.106 µg/mL (≈ 0.111 µM) in assay [3].
The corresponding values for `CC[C@H]1OC(=O)[C@H](C)[C@@H](O[C@@H]2C[C@@H](C)[C@H](O)[C@](C)(OC)C2)[C@H](O)[C@@H](O[C@@H]2O[C@H](C)C[C@H](N(C)C)[C@H]2O)[C@](C)(O)C[C@@H](C)CN(CCCNC(=O)Nc2ccc(OCc3ccccc3)cc2)[C@H](C)[C@@H](O)[C@]1(C)O` [Example 87] are 0.148 µg/mL (≈ 0.146 µM), 0.304 µg/mL (≈ 0.299 µM) and 0.178 µg/mL (≈ 0.175 µM).
On to `CCC1OC(=O)C(C)C(OC2CC(C)(OC)C(O)C(C)O2)C(C)C(OC2OC(C)CC(N(C)C)C2O)C(C)(O)CC(C)CN(CCNC(=O)NCc2ccccc2)C(C)C(O)C1(C)O` (stereo not drawn) [Example 3, 9-Deoxo-9-dihydro-9a-(N′-benzylcarbamoyl-β-aminoethyl)-9a-aza-9a-homoerythromycin A], for which, in assay [1], the “IC50 TM91C235” value was 0.1547 µg/mL (≈ 0.17 µM). In assay [2], the “IC50 D6” value was determined as 0.292 µg/mL (≈ 0.32 µM). Further, the “IC50 W2” value in assay [3] was determined as 0.2617 µg/mL (≈ 0.287 µM).
On to `CC[C@H]1OC(=O)[C@H](C)[C@@H](O[C@H]2C[C@@](C)(OC)[C@@H](O)[C@H](C)O2)[C@H](C)[C@@H](O[C@@H]2O[C@H](C)C[C@H](N(C)C)[C@H]2O)[C@](C)(O)C[C@@H](C)CN(CCCNC(=S)Nc2ccc(Br)cc2)[C@H](C)[C@@H](O)[C@]1(C)O.O=CO` [Example 137], for which the IC50 in assay [1] is 0.182 µg/mL; in assay [2] (read-out: IC50 D6), 0.274 µg/mL; in assay [3] it was 0.178 µg/mL.

In general, IC50 refers to the midpoint of a concentration-inhibition curve.
